Data from US20150203471A1, “METHODS FOR IMPROVING CHICKEN PRODUCTION” (ELI LILLY AND COMPANY, priority 2012, published 2015).
Counter-ions that a name gives are not always drawn. Like-named read-outs stand apart in the source and are kept apart here.

How the values were obtained:
male broilers [1] = experiment: Study 1: growth performance and carcass responses of male broilers, compounds in feed vs positive and negative controls; type: in vivo, chicken; settings: 14 days; for change in vivo at 15 ppm, 15 µg/mL: Gallus gallus, feed or water, 336 h
Text: An objective of this study is to evaluate growth performance and carcass responses of male broilers by comparing non-zero dosages of the above compounds versus a positive control (Compound 1) and negative controls. Table 1 sets out the specific treatment groups:
(§1) The route of administration is oral, with the compounds mixed in feed, and provided Ad libitum. The age of the chickens of Day 1 of the study is 35 days old. Body weights are taken on the following days: • 1) Study Day 1 (pen weight) • 2) Study Day 14 (individual animal weights) • 3) Study Day 15 (individual weights on selected animals) • 4) Study Day 16 (blocks 1-5) • 5) Study Day 17 (blocks 6-10).
(§2) Following collection of final weights, the following processing data is collected (hot weights) on individual animals: • 1) Live weight • 2) Hot carcass weight • 3) Fat pad weight • 4) Hot breast muscle weight • 5) Hot bone in leg weight

male broilers [2] = experiment: Study 2: growth performance and carcass responses of male broilers, compounds in feed in the last 14 days prior to slaughter; type: in vivo, chicken
Protocol: Compounds 2, 5, and 9 are used in this study. The study is conducted to evaluate growth performance and carcass responses of male broilers by comparing non-zero dosages of the compounds, versus negative control, administered in the last 14 days prior to slaughter. Table 3 sets out the specific treatment groups.
as §1, with “15” for “14”, “16” for “15”, “animals in animals in blocks 1-4)” for “animals)”, “Day” for “Day 16 (blocks 1-5) • 5) Study Day”, “(individual weights on selected animals in animals in blocks 5-8)” for “(blocks 6-10).”
as §2

[3] = tested on: Hubbard M99 X Cobb chicks; experiment: Study 3: dose response in live performance and carcass yields of commercial broilers raised to a small-size market; type: in vivo, chicken
Protocol: This study is conducted to determine the dose response of the Compound 5 measured in live performance and carcass yields of commercial broilers raised to a small-size market when fed a “typical” feed. 2400 Hubbard M99 X Cobb chicks (1200 male/1200 female) are used in this study. Compound 5 is administered at the following doses: 0, 2, 4, 8, and 16 ppm, orally in feed, beginning when the chicks are 24 days of age and ending when the chicks are 38 days of age. The five different Compound 5 doses are administered in a mash diet formulated to meet all nutrient recommendations using only commercially available ingredients.
Parameters measured in the study include ADG (average daily gain), ADFI (average daily feed intake), GE (gain efficiency), and FE (feed efficiency). The birds are measured for carcass (without giblets), breast muscle (boneless-skinless), and leg-quarter weights. The live body weight on the day of processing is used to calculate the yields for carcass, breast meat, and leg quarters for the birds.

[4] = tested on: Ross X Ross 708 male chicks; experiment: Study 4: live performance and carcass traits of broilers; type: in vivo, chicken; settings: 16 ppm in feed vs 0 ppm, 34 to 48 days of age
Protocol: (§3) This study is conducted to investigate the effects of Compound 5 on live performance and carcass traits of broilers, and to evaluate the emission of various gases from broilers provision of feed with or without Compound 5. Ross X Ross 708 male chicks are used in this study. Compound 5 is administered at the following doses: 0 and 16 ppm, orally in feed, beginning when the chicks are 34 days of age and ending when the chicks are 48 days of age. The Compound 5 doses are administered in a mash diet formulated to meet all nutrient recommendations using only commercially available ingredients.
(§4) Parameters measured in the study include ADG, ADFI, and FCR. The birds are measured for carcass (without giblets), breast muscle (boneless-skinless), leg-quarter, and abdominal fat weights. The live body weight on the day of processing is used to calculate the yields for carcass, breast meat, and leg quarters for the birds. Also measured are emissions of various gases. Cumulative gas emission are monitored and calculated for the following gases: NH3, NO, NO2, H2S, SO2, methane/non-methane total hydrocarbon, O2, and CO2. The efficacy of Compound 5 is determined by the cumulative emission of these gases, as well as by standardizing these cumulative values to their body, carcass, breast meat, and leg-quarter weights.

[5] = tested on: Ross X Ross 708 male chicks; experiment: Study 4: cumulative gas emission from broilers; type: in vivo, chicken; settings: 16 ppm in feed, 34 to 48 days of age, compared to untreated birds
Protocol: as §3, §4

[6] = Ames assay (mutagenicity); type: cell-based; settings: compared with the other compounds tested
Zebrafish = Zebrafish assay (teratogenesis/chromosomal impact); type: in vivo; settings: compared with the other compounds tested
[7] = 15 ppm in feed ad libitum, male broilers, percent change from negative control, * in cell = not significant
[8] = 0, 2, 4, 8, 16 ppm in feed, 24 to 38 days of age
[9] = 0, 2, 4, 8, 16 ppm in feed, 24 to 38 days of age, male and female chicks

## CC(C)(Cc1ccc(Oc2ccccn2)cc1)NC[C@H](O)COc1cccc2c1C(C)(C)C(=O)N2 [Compound 5, 4-[{(2S)-3-({1,1-dimethyl-2-[4-(pyridin-2-yloxy)phenyl]ethyl}amino)-2-hydroxypropyl]oxy}-3,3-dimethyl-1,3-dihydro-2H-indol-2-one hydrochloride]
Male broilers [1]; [7]
  Ave daily live wt gain % inc.: 5.8%
  Breast wt % inc.: 6.0%
  Feed intake % inc.: 1.1* %
  Gain effic % inc.: 4.9%
  Leg wt % inc.: 8.1%
Male broilers [1]; 15 ppm in feed ad libitum, male broilers, percent decrease from negative control, * in cell = not significant
  Fat Pad wt % dec.: 17.4%
Male broilers [1]; 15 ppm in feed
  fat pad weight (in words): reduce fat pad weight
  feed intake (in words): significant increase in feed intake
  gain versus untreated control (in words): significantly greater than untreated control
  significance of the fat pad weight difference: significant
Male broilers [1]; 15 ppm in feed, positive control = Compound 1
  improvement versus negative control and positive control (in words): significantly better improvement than both the negative control and the positive control
Male broilers [1]; 15 ppm in feed ad libitum, male broilers 35 days old at Day 1, percent change from negative control, * in cell = not significant vs negative control, read-out: ADG % inc.
  change in vivo at 15 ppm, 15 µg/mL: 5.1%
Male broilers [1]; 15 ppm in feed ad libitum, male broilers, percent change from negative control, * in cell = not significant, read-out: Hot carcass wt % inc.
  change in vivo at 15 ppm, 15 µg/mL: 5.8%
Male broilers [2]; 3.5 ppm in feed
  ADG versus negative control group: significantly higher
  F/G ratio (feed:gain efficiency) versus negative control group: significantly lower
  G/F ratio (gain:feed efficiency) versus negative control group: significantly higher
  hot bone-in leg weight versus negative control group: significantly higher
  hot breast muscle weight versus negative control group: significantly higher
  hot carcass weight versus negative control group: significantly higher
Male broilers [2]; 7 ppm in feed
  ADG versus negative control group: significantly higher
  F/G ratio (feed:gain efficiency) versus negative control group: significantly lower
  G/F ratio (gain:feed efficiency) versus negative control group: significantly higher
  hot bone-in leg weight versus negative control group: significantly higher
  hot breast muscle weight versus negative control group: significantly higher
  hot carcass weight versus negative control group: significantly higher
[3]; [8]
  leg-quarter weight: Improvements are observed
  leg-quarter yield: Improvements are observed
[3]; [9]
  FE (feed efficiency): Improvements are observed
  GE (gain efficiency): Improvements are observed
[3]; doses 2, 4, 8, 16 ppm in feed
  dose response of the improvements (GE, FE, leg-quarter weight and yield): doses at above 2 ppm do not show additional benefit
[3]; male versus female broilers, 24 to 38 days of age
  GE and FE by sex: positively impacted only in female broilers
[4]
  live performance and carcass traits monitored: improvements in all live performance carcass traits monitored, except for ADFI and mortality
[5]
  reduction in NH3 emission standardized to live weight of the birds or its saleable cuts: more than 30%
  reduction of cumulative emission of H2S: 19.0%
  reduction of cumulative emission of NH3: 29.2%
[6]
  Ames assay result (mutagenicity): better results
Zebrafish
  Zebrafish assay result (teratogenesis/chromosomal impact): better results
